{"source": "patent US6838050B1", "about": "“Methods and devices for providing anti-infective activity to a medical device” (Oxibio, Inc., priority 1999, dated 2005)", "origin": "cited, not measured here", "key": {"[1]": {"details": "human"}}, "data": [{"compound": "II", "note": "[free iodine, elemental iodine]", "values": [{"measurement": "upper daily threshold for total iodine exposure posing no significant health threat", "setting": "[1]", "value": "≤ 1000", "unit": "micrograms per day"}, {"measurement": "free iodine level at which effective microbial killing occurs", "setting": "bacteria and viruses", "value": "not less than 0.1 ppm"}, {"measurement": "level in solution sufficient to kill bacteria and viruses", "setting": "bacteria and viruses", "value": "A few parts per million"}, {"measurement": "upper limit of solubility", "value": "~320", "unit": "ppm"}]}]}
